Tests used:
[1] = tested on: ATXN3 transcripts containing exon 4; test: ATXN3 Quantitative Splicing Assay (qPCR, E4E5 primers/probe); assay type: cell-based, Human; conditions: SK-N-MC cells, treated with compounds for 24 h, qPCR of transcripts containing exon 4
Experimental: Human neuroblastoma SK-N-MC cells were plated in 384-well plates at 20,000 cells/well. Twenty-four hours after plating, cells were treated with compounds for 24 h at appropriate concentrations ranging from 30.M to 0.6 nM (0.300 DMS0). Treated cells were lysed in 15 μL of lysis buffer, and cDNA was synthesized using the Fast Advanced Cells-to-Ct kit. Two μL of each cDNA was used in qPCR reactions to confirm the exon 4 skipped transcripts of ATXN3. A second set of primers/probe E4E5 was used to detect the transcripts containing exon 4. The third set of primers/probe E8E9 was used to detect total gene level of ATXN3. The qPCR reactions were prepared in 384-well plates in 10 μL volume, using TaqMan™ Fast Advanced Master Mix with primers and probes shown in the table below. Reactions were run in a Quant Studio 6 qPCR instrument with default settings.
The primers and probes are listed below in Table 4.

[2] = tested on: total ATXN3 protein; test: ATXN3 total protein assay (Mesoscale Discovery); assay type: cell-based, Human; conditions: SK-N-MC cells, 48 hours incubation, MSD assay
Experimental: Human neuroblastoma SK-N-MC cells were seeded at 10,000 cells/well in 384 well plates one day prior to compound treatment. The concentrations of compounds were tested at appropriate doses ranging from 30 μM to 0.6 nM. After incubation for 48 hours, the cells were lysed with 25 μL of lysis buffer containing protease inhibitors, and total ATXN3 protein levels were assessed by Mesoscale Discovery (MSD) assay developed with one pair of anti-ATXN3 antibodies. The capture and detect antibodies were raised in mouse and rabbit respectively. Anti-rabbit MSD-ST antibody was used for secondary antibody. ATXN3 recombinant protein was used for standards. The readouts were captured with 35 μL of MSD read buffer and multi-array 384-well high binding plates.

[3] = tested on: ATXN3-HiBiT protein; test: ATXN3 HiBiT assay (Nano Glo HiBiT luminescence); assay type: cell-based; conditions: Kelly-ATXN3-HiBiT cells, luminescence read out 48 h after addition of the compound
Text: To monitor ATXN3 protein levels by luminescence, a Kelly-ATXN3-HiBiT cell line with homozygous knock-in of HiBiT at the C-terminus of the endogenous ATXN3 gene was used (knock-in of the HiBiT-tag coding sequence SEQ ID NO. 14: 5′[…]3′ into exon 11 of ATXN3 -position 1114 of ATXN3 RefSeq NM_004993.6). Manipulations of the Kelly-ATXN3-HiBiT cell line that result in downregulation of the ATXN3-HiBiT protein (through modulation of ATXN3-HiBiT pre-mRNA splicing) can be followed by monitoring the luminescence signal of the HiBiT tag using the Nano Glo HiBiT Lytic Detection System (Promega, #N3050). Kelly-ATXN3-HiBiT cells were maintained in RPMI 1640 w/Glutamax (Gibco, #61870010), 10% FBS (Sigma Aldrich, #F8687), 1% Penicillin/Streptomycin (Gibco, #15140-122) at 37° C., 5% CO2. To assess HiBiT-luminescence signal upon compound treatment, 2000 Kelly-ATXN3-HiBiT cells were seeded per well in 384 plate format. Compounds were added 24 h after seeding. ATXN3-HiBiT-luminescence signal was read out 48 h after addition of the compound using the Nano Glo HiBiT Lytic Detection System (Promega, #N3050) according to the manufacturer's instructions. To control for cell viability, an identically prepared sister plate was read out with the CellTiter-Glo® 2.0 Assay (Promega, #G9243) according to the manufacturer's instructions. Fold changes of ATXN3-HiBiT-luminescence and of CellTiter-Glo viability signals were calculated relative to a DMSO control condition.

| IC50 ([1]; Homo sapiens) [nM] | IC50 [2] [nM] | EC50 [3] [nM] | IC50 [1] [nM] | SMILES |
| --- | --- | --- | --- | --- |
| 101 to 500 | 101 to 500 | 101 to 500 | – | CC#Cc1c(C[C@@H](N)CC(F)(F)F)oc2c(NCc3ccco3)cc(Cl)nc12 [Compound 3, 2-[(R)-2-amino-4,4,4-trifluorobutyl]-5-chloro-7-(furfurylamino)-3-(1-propynyl)-1-oxa-4-azaindene] |
| 0.01 to 100 | 0.01 to 100 | 0.01 to 100 | – | CC#Cc1c(C[C@@H](N)[C@H](C)F)oc2c(NCc3ccco3)cc(Cl)nc12 [Compound 5, 2-[(2R,3S)-2-amino-3-fluorobutyl]-5-chloro-7-(furfurylamino)-3-(1-propynyl)-1-oxa-4-azaindene] |
| 501 to 5000 | – | – | – | CC#Cc1c(C[C@@H](N)[C@H](C)F)oc2c(NCc3cccs3)c(F)c(Cl)nc12 [Compound 37, 2-[(2R,3S)-2-amino-3-fluorobutyl]-5-chloro-6-fluoro-3-(1-propynyl)-7-thenylamino-1-oxa-4-azaindene] |
| 0.01 to 100 | 101 to 500 | 0.01 to 100 | – | [2H]C([2H])(OC)[C@H](N)Cc1oc2c(NCc3cccs3)cc(Cl)nc2c1C#CC [Compound 46, 2-[(R)-2-amino-3-methoxy(3,3- ^2H2)propyl]-5-chloro-3-(1-propynyl)-7-thenylamino-1-oxa-4-azaindene] |
| 501 to 5000 | 501 to 5000 | 501 to 5000 | – | CC#Cc1c(C[C@@H](N)C2CC(F)(F)C2)oc2c(NCc3cccs3)cc(Cl)nc12 [Compound 15, 2-[(R)-2-amino-2-(3,3-difluorocyclobutyl)ethyl]-5-chloro-3-(1-propynyl)-7-thenylamino-1-oxa-4-azaindene] |
| 0.01 to 100 | – | – | – | CC#Cc1c([C@H]2CC(F)(F)CC[C@@H]2N)oc2c(NCc3cccs3)cc(Cl)nc12 [Compound 52, 2-[(1S,2S)-2-amino-5,5-difluorocyclohexyl]-5-chloro-3-(1-propynyl)-7-thenylamino-1-oxa-4-azaindene] |
| 101 to 500 | 101 to 500 | 101 to 500 | – | C[C@H](F)[C@H](N)Cc1oc2c(NCc3ccco3)cc(Cl)nc2c1C#CC1CC1 [Compound 7, 2-[(2R,3S)-2-amino-3-fluorobutyl]-5-chloro-3-(2-cyclopropylethynyl)-7-(furfurylamino)-1-oxa-4-azaindene] |
| 101 to 500 | 101 to 500 | 101 to 500 | – | CC#Cc1c(C[C@@H](N)CC(F)(F)F)oc2c(NCc3cccs3)cc(Cl)nc12 [Compound 4, 2-[(R)-2-amino-4,4,4-trifluorobutyl]-5-chloro-3-(1-propynyl)-7-thenylamino-1-oxa-4-azaindene] |
| 501 to 5000 | – | – | – | CC#Cc1c(C2CCC2N)oc2c(NCc3cccs3)cc(Cl)nc12 (single isomer, unassigned) [Compound 50, 2-(2-aminocyclobutyl)-5-chloro-3-(prop-1-yn-1-yl)-N-(thiophen-2-ylmethyl)furo[3,2-b]pyridin-7-amine] |
| 5000 to 10000 | 10000 to 40000 | 501 to 5000 | – | CC#Cc1cc(NCc2cccs2)c2oc(C[C@@H](N)C3CC(F)(F)C3)c(C#CC)c2n1 [Compound 23, 2-[(R)-2-amino-2-(3,3-difluorocyclobutyl)ethyl]-3,5-bis(1-propynyl)-7-thenylamino-1-oxa-4-azaindene] |
| 0.01 to 100 | 0.01 to 100 | 0.01 to 100 | – | CC#Cc1c(C[C@@H](N)[C@H](C)F)oc2c(NCc3ccco3)nc(Cl)nc12 [Compound 41, 2-[(2R,3S)-2-amino-3-fluorobutyl]-5-chloro-7-(furfurylamino)-3-(1-propynyl)-1-oxa-4,6-diazaindene] |
| 101 to 500 | 0.01 to 100 | 0.01 to 100 | – | CC#Cc1c(C[C@@H](N)COC)oc2c(NCc3ccco3)cc(Cl)nc12 [Compound 39, 2-[(R)-2-amino-3-methoxypropyl]-5-chloro-7-(furfurylamino)-3-(1-propynyl)-1-oxa-4-azaindene] |
| 101 to 500 | 501 to 5000 | 101 to 500 | – | CC#Cc1c(C(F)(F)[C@H](C)N)oc2c(NCc3cccs3)nc(Cl)nc12 [Compound 33, 2-[(S)-2-amino-1,1-difluoropropyl]-5-chloro-3-(1-propynyl)-7-thenylamino-1-oxa-4,6-diazaindene] |
| 0.01 to 100 | – | – | – | CC#Cc1c([C@H]2CCCC[C@@H]2N)oc2c(NCc3cccs3)cc(Cl)nc12 [Compound 49, 2-[(1S,2S)-2-aminocyclohexyl]-5-chloro-3-(1-propynyl)-7-thenylamino-1-oxa-4-azaindene] |
| 0.01 to 100 | 0.01 to 100 | 0.01 to 100 | – | CC#Cc1c(C[C@@H](N)[C@H](C)F)oc2c(NCc3cccs3)cc(Cl)nc12 [Compound 6, 2-[(2R,3S)-2-amino-3-fluorobutyl]-5-chloro-3-(1-propynyl)-7-thenylamino-1-oxa-4-azaindene] |
| 0.01 to 100 | 101 to 500 | 0.01 to 100 | – | CC#Cc1c(C[C@@H](N)COC)oc2c(NCc3cccs3)cc(Cl)nc12 [Compound 21, 2-[(R)-2-amino-3-methoxypropyl]-5-chloro-3-(1-propynyl)-7-thenylamino-1-oxa-4-azaindene] |
| – | – | – | 501 to 5000 | CC#Cc1c(C2CCC2N)oc2c(NCc3cccs3)cc(Cl)nc12 (single isomer, unassigned) [Compound 51, 2-(2-aminocyclobutyl)-5-chloro-3-(prop-1-yn-1-yl)-N-(thiophen-2-ylmethyl)furo[3,2-b]pyridin-7-amine] |
| 0.01 to 100 | 101 to 500 | 0.01 to 100 | – | CC#Cc1c(C[C@@H](N)[C@H](C)F)oc2c(NCc3nccs3)cc(Cl)nc12 [Compound 12, 2-[(2R,3S)-2-amino-3-fluorobutyl]-5-chloro-3-(1-propynyl)-7-{[(1,3-thiazol-2-yl)methyl]amino}-1-oxa-4-azaindene] |

| SMILES | IC50 ([1]; Homo sapiens) [nM] | IC50 [2] [nM] | EC50 [3] [nM] | IC50 [1] [nM] |
| --- | --- | --- | --- | --- |
| CC#Cc1c(C[C@H](C)N)oc2c(NCc3cccs3)cc(Cl)nc12 [Compound 1, 2-[(S)-2-aminopropyl]-5-chloro-3-(1-propynyl)-7-thenylamino-1-oxa-4-azaindene] | 101 to 500 | 101 to 500 | 101 to 500 | – |
| CCC#Cc1c(C[C@H](C)N)oc2c(NCc3cccs3)cc(Cl)nc12 [Compound 16, 2-[(S)-2-aminopropyl]-3-(1-butynyl)-5-chloro-7-thenylamino-1-oxa-4-azaindene] | 101 to 500 | 101 to 500 | 101 to 500 | – |
| CC#Cc1c(C[C@H](C)N)oc2c(NCc3ccco3)cc(Cl)nc12 [Compound 2, 2-[(S)-2-aminopropyl]-5-chloro-7-(furfurylamino)-3-(1-propynyl)-1-oxa-4-azaindene] | 101 to 500 | 101 to 500 | 101 to 500 | – |
| CC#Cc1cc(NCc2cccs2)c2oc(C[C@H](C)N)c(C#CC)c2n1 [Compound 28, 2-[(2S)-2-aminopropyl]-3,5-bis(prop-1-yn-1-yl)-N-(thiophen-2-ylmethyl)furo[3,2-b]pyridin-7-amine] | 501 to 5000 | 501 to 5000 | 501 to 5000 | – |
| CCC#Cc1c(C[C@H](C)N)oc2c(NCc3ccco3)cc(Cl)nc12 [Compound 22, 2-[(S)-2-aminopropyl]-3-(1-butynyl)-5-chloro-7-(furfurylamino)-1-oxa-4-azaindene] | 101 to 500 | 501 to 5000 | 501 to 5000 | – |
| C[C@H](N)Cc1oc2c(NCc3cccs3)cc(Cl)nc2c1C#CCF [Compound 19, 2-[(S)-2-aminopropyl]-5-chloro-3-(3-fluoro-1-propynyl)-7-thenylamino-1-oxa-4-azaindene] | 101 to 500 | 101 to 500 | 101 to 500 | – |

From patent publication US20260027118A1, “COMPOSITIONS USEFUL FOR MODULATING SPLICING” (Skyhawk Therapeutics, Inc., priority 2022, published 2026)
